In patent publication US12263172B2, “Toll-like receptor agonists for use in the treatment of hepatitis b” (priority 2019, dated 2025):

Tested on: CYP1A2, 2B6, and 3A4
Assay: in vitro CYP induction
Assay type: in vitro ADME
Settings: up to 10 μM

## CCCCOc1nc(N)c2[nH]cc(Cc3ccc(CN4CCCC4)cc3)c2n1 [Compound 4]
  in vitro induction of CYP1A2, 2B6, and 3A4: not an in vitro inducer
